# Assay results taken from patent US20250134874A1, “PHARMACEUTICAL FORMULATIONS COMPRISING 3-({[(4R)-7-{METHYL[4-(PROPAN-2-YL)PHENYL]AMINO}-3,4-DIHYDRO-2H-1-BENZOPYRAN-4-YL]METHYL}AMINO)PYRIDINE-4-CARBOXYLIC ACID” (TACHYON THERAPEUTICS, INC., priority 2021, published 2025).
# System: 301 cancer cell lines from different tumor types (OncoPanel; HD Biosciences)
# Experiment: 2D cell viability inhibition assay (CellTiter-Glo) in cancer cell line panel
# Format: cell-based
# Set-up: key to AUC: AUC as fraction of the no-inhibition area (dose range × 0–100 % of control)
# Conditions: for Emax: in %
# Method: In a larger screening study, compound 1 was evaluated across a broad cancer cell line panel (OncoPanel; HD Biosciences) composed of 301 cancer cell lines from different tumor types.
# 2D cell viability inhibition assays were performed in multiwell plates seeded with cells from the panel. After seeding, the plates were cultured overnight in a humidified incubator at 37° C. to promote adherence. Assays were initiated in individual wells by adding either DMSO as a vehicle control, growth media as a blank, or serially diluted compound 1 (10 μM to 0.0005 μM with 1:3 serial dilution). Cultures were incubated for 168 hours after which the number of viable cells in each test well was assessed using the CellTiter-Glo® Luminescent Cell Viability Assay. Luminescence readouts were performed using an EnVision® Multilabel Reader and the compound 1 readouts were normalized to the DMSO control readouts, expressed as a percent of the control. Outliers were flagged out by visual inspection. Percent of control was plotted against the corresponding compound 1 concentration and the absolute IC50 value was determined using four-parameter logistic non-linear regression as the concentration where inhibition was 50% of the control. For maximum inhibition <50%, the absolute IC50 was reported as >10. In addition to EC50 and IC50, AUC was determined and was normalized to the area corresponding to theoretical no-inhibition (the rectangular area defined by the compound dose range and 0 to 100 in y). Emax was recorded as the minimum in y with the compound dose range. For those cell lines where Emax>40, EC50 was manually set to 10 μM. A hierarchical clustering algorithm based on Euclidean distance between the standardized input values and “Ward.D” method as implemented in R hclust function was used to visualize the compound 1 cellular potency data. The sensitive/moderate/resistant calls for each cell line was determined by visually inspecting the resulting clustering dendrogram. All the analyses were done in R Core Team.
smiles,measurement,setting,value
"CC(C)c1ccc(N(C)c2ccc3c(c2)OCC[C@H]3CNc2cnccc2C(=O)O)cc1 [Compound 1, 3-({[(4R)-7-{methyl[4-(propan-2-yl)phenyl]amino}-3,4-dihydro-2H-1-benzopyran-4-yl]methyl}amino)pyridine-4-carboxylic acid]",AUC,"RPMI7951, skin, NS, 168 hours",0.8067
same,AUC,RPMI8226 cell line,0.4363
same,Emax,RPMI8226 cell line,12.46
same,AUC,RT11284 cell line,0.3717
same,AUC,"SAOS2, bone, NS, 168 hours",1.081
same,AUC,SCABER cell line,0.5687
same,Emax,SCABER cell line,32.32
same,AUC,SCC4 cell line,0.4619
same,Emax,SCC4 cell line,26.08
same,AUC,"SCC9, upper aerodigestive tract, squamous cell carcinoma, 168 hours",0.9424
same,AUC,"SCC15, upper aerodigestive tract, squamous cell carcinoma, 168 hours",0.9489
same,AUC,"SCC25, upper aerodigestive tract, squamous cell carcinoma, 168 hours",0.7789
same,AUC,SHSY5Y cell line,0.4927
same,Emax,SHSY5Y cell line,25.04
same,AUC,SKBR3 cell line,0.4396
same,Emax,SKBR3 cell line,26.59
same,AUC,SKCO1 cell line,0.5952
same,AUC,"SKHEP1, liver, adenocarcinoma, 168 hours",0.7091
same,AUC,SKLU1 cell line,0.5662
same,AUC,SKMEL1 cell line,0.4427
same,Emax,SKMEL1 cell line,22.0664
same,AUC,SKMEL2 cell line,0.6392
same,AUC,SKMEL3 cell line,0.6207
same,AUC,SKMEL5 cell line,0.4074
same,Emax,SKMEL5 cell line,8.228
same,AUC,"SKMEL24, skin, NS, 168 hours",0.7882
same,AUC,SKMEL28 cell line,0.2796
same,AUC,"SKMEL31, skin, NS, 168 hours",0.7393
same,AUC,SKMES1 cell line,0.6069
same,AUC,"SKNSH, autonomic ganglia, NS, 168 hours",0.7295
same,AUC,"SKOV3, ovary, adenocarcinoma, 168 hours",0.9901
same,AUC,SNB19 cell line,0.4677
same,Emax,SNB19 cell line,20.73
same,AUC,SNGM cell line,0.9165
same,EC50,SNGM cell line,4.14 µM
same,IC50,SNGM cell line,4.9 µM
same,AUC,SNU5 cell line,0.6837
same,AUC,SNU16 cell line,0.2821
same,AUC,SNU398 cell line,0.4911
same,Emax,SNU398 cell line,25.8616
same,EC50,"SNU668, SNU668 cell line",0.0128 µM
same,IC50,"SNU668, SNU668 cell line",0.0189 µM
same,AUC,SNU668 cell line,0.464
same,AUC,SNU761 cell line,0.5814
same,EC50,SNU761 cell line,≥ 10 µM
same,IC50,SNU761 cell line,0.0397 µM
same,IC50,"SNU878, SNU878 cell line",> 10 µM
same,AUC,SNU878 cell line,0.6648
same,AUC,SNU886 cell line,0.6425
same,IC50,"SNU-886, SNU886 cell line",> 10 µM
same,AUC,"SNUC1, large intestine, adenocarcinoma, 168 hours",0.7478
same,AUC,SNUC2A cell line,0.615
same,EC50,SNUC2A cell line,0.0245 µM
same,IC50,SNUC2A cell line,0.0525 µM
same,AUC,SUPT1 cell line,0.6913
same,AUC,SW48 cell line,0.6038
same,AUC,SW480 cell line,0.409
same,Emax,SW480 cell line,20.36
same,IC50,"SW579, 168 h, SW579, thyroid, anaplastic carcinoma, 168 hours",> 10 µM
same,AUC,"SW579, thyroid, anaplastic carcinoma, 168 hours",0.9203
same,AUC,SW620 cell line,0.4658
same,AUC,SW780 cell line,0.4491
same,Emax,SW780 cell line,13.9761
same,AUC,"SW837, large intestine, adenocarcinoma, 168 hours",0.7109
same,IC50,"SW1271, 168 h, SW1271, lung, small cell carcinoma, 168 hours",> 10 µM
same,AUC,"SW1271, lung, small cell carcinoma, 168 hours",0.8179
same,AUC,"SW1417, large intestine, adenocarcinoma, 168 hours",0.9634
same,AUC,SW1463 cell line,0.3408
same,Emax,SW1463 cell line,7.126
same,AUC,SW1710 cell line,0.5768
same,AUC,SW1990 cell line,0.6894
same,AUC,"T24, urinary tract, transitional cell carcinoma, 168 hours",0.9289
same,AUC,T84 cell line,0.4928
same,AUC,T.T cell line,0.4321
same,Emax,T.T cell line,24.08
same,AUC,TALL1 cell line,0.1999
same,AUC,"TE1, oesophagus, squamous cell carcinoma, 168 hours",0.938
same,AUC,TE4 cell line,0.3948
same,EC50,TE4 cell line,0.00911 µM
same,IC50,TE4 cell line,0.0127 µM
same,Emax,TE4 cell line,11.49
same,AUC,TE5 cell line,0.3877
same,Emax,TE5 cell line,15.07
same,AUC,TE6 cell line,0.3625
same,Emax,TE6 cell line,14.02
same,AUC,"TE8, oesophagus, squamous cell carcinoma, 168 hours",0.816
same,AUC,TE9 cell line,0.4247
same,Emax,TE9 cell line,25.31
same,AUC,TE10 cell line,0.5293
same,Emax,TE10 cell line,29.65
same,AUC,TE11 cell line,0.304
same,AUC,TE14 cell line,0.3068
same,EC50,TE14 cell line,0.00232 µM
same,IC50,TE14 cell line,0.00339 µM
same,AUC,"TE15, oesophagus, squamous cell carcinoma, 168 hours",1.084
same,AUC,TF1 cell line,0.2883
same,AUC,THP1 cell line,0.3371
same,AUC,TOV112D cell line,0.3964
same,Emax,TOV112D cell line,23.19
same,AUC,U2OS cell line,0.4065
same,Emax,U2OS cell line,9.064
same,AUC,U87MG cell line,0.514
same,Emax,U87MG cell line,38.45
same,AUC,U937 cell line,0.1808
same,AUC,"UACC812, breast, ductal carcinoma, 168 hours",0.8418
same,AUC,UMUC3 cell line,0.5934
same,AUC,"VCAP, prostate, adenocarcinoma, 168 hours",0.7822
same,AUC,WM115 cell line,0.6097
same,AUC,WM2664 cell line,0.5838
same,AUC,WSUDLCL2 cell line,0.2829
same,AUC,YD38 cell line,0.2983
same,EC50,YD38 cell line,0.00355 µM
same,IC50,YD38 cell line,0.00377 µM
